For two compounds, Stability and Activity results are on record in ChEMBL document CHEMBL1143806, “Synthesis and biological evaluation of the suberoylanilide hydroxamic acid (SAHA) beta-glucuronide and beta-galactoside for application in selective prodrug chemotherapy” (Bioorg Med Chem Lett, 2007).

The source made the active and inactive calls. No cut-off for these calls is given here.

The nature of data set [1]: Stability in presence of 100 U/mL Escherichia coli beta-glucuronidase assessed as SAHA production after 30 mins. It counts as ADME. The conditions noted are these: 0.5 h.
The nature of data set [2]: Stability in presence of 100 U/mL Escherichia coli beta-glucuronidase assessed as SAHA production after 7 mins. It counts as ADME.
The subject of data set [3] is NCI-H661. The data set is described as follows: Antiproliferative activity against human H661 cells at 1 to 25 uM after 48 hrs. Type of data set: functional, cell-based.
Data set [4] can be described thus: Stability in presence of 200 to 1000 U/mL bovine liver beta-glucuronisase assessed as SAHA production at 100 ug/mL. It counts as ADME. The conditions noted are these: cattle.

For `O=C(CCCCCCC(=O)Nc1ccccc1)NO[C@@H]1O[C@H](C(=O)O)[C@@H](O)[C@H](O)[C@H]1O`, the Stability result in data set [1], in data set [2] and in data set [4] was “Stable” each time. Besides, the outcome in data set [3] was inactive.
Regarding `O=C(CCCCCCC(=O)Nc1ccccc1)NO[C@@H]1O[C@H](CO)[C@H](O)[C@H](O)[C@H]1O`, the result in data set [3] was inactive.
